# Test results reported in PubChem BioAssay AID1918942 (Molecular Pharmacology Branch, DTP, NCI, 2023).
# Test system: 743489-274-T-PDC complex spheroid viability
# Assay: Anticancer human tumor 743489-274-T-PDC patient-derived renal cell carcinoma cell line growth inhibition
# Conditions: for IC50: curve of first compound; for viability, T/C: stronger effect = lower value
# In short: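 Multicellular complex spheroids of tumor cells with human endothelial cells (HUVEC) and mesenchymal stem cells; the LSD1 inhibitor iadademstat was combined with standard-of-care or investigational agents. Top concentration at or near clinical Cmax, half-log dilutions; final DMSO ≤0.25%.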
# [1] = second compound 0.1 µM, first compound 0.00316 µM
# [2] = second compound 0.1 µM, first compound 0.01 µM
# [3] = second compound 0.1 µM, first compound 0.0316 µM
# [4] = second compound 0.1 µM, first compound 0.1 µM
# [5] = second compound 0.316 µM, first compound 0.00316 µM
# [6] = second compound 0.316 µM, first compound 0.01 µM
# [7] = second compound 0.316 µM, first compound 0.0316 µM
# [8] = second compound 0.316 µM, first compound 0.1 µM
# [9] = second compound 1 µM, first compound 0.00316 µM
# [10] = second compound 1 µM, first compound 0.01 µM
# [11] = second compound 1 µM, first compound 0.0316 µM
# [12] = second compound 1 µM, first compound 0.1 µM
# [13] = second compound 3.16 µM, first compound 0.00316 µM
# [14] = second compound 3.16 µM, first compound 0.01 µM
# [15] = second compound 3.16 µM, first compound 0.0316 µM
# [16] = second compound 3.16 µM, first compound 0.1 µM
# [17] = second compound 10 µM, first compound 0.00316 µM
# [18] = second compound 10 µM, first compound 0.01 µM
# [19] = second compound 10 µM, first compound 0.0316 µM
# [20] = second compound 10 µM, first compound 0.1 µM
# [21] = second compound 0.1 µM, first compound 0.00949 µM
# [22] = second compound 0.1 µM, first compound 0.03 µM
# [23] = second compound 0.1 µM, first compound 0.0949 µM
# [24] = second compound 0.1 µM, first compound 0.3 µM
# [25] = second compound 0.1 µM, first compound 0.949 µM
# [26] = second compound 0.1 µM, first compound 3 µM
# [27] = second compound 0.316 µM, first compound 0.00949 µM
# [28] = second compound 0.316 µM, first compound 0.03 µM
# [29] = second compound 0.316 µM, first compound 0.0949 µM
# [30] = second compound 0.316 µM, first compound 0.3 µM
# [31] = second compound 0.316 µM, first compound 0.949 µM
# [32] = second compound 0.316 µM, first compound 3 µM
# [33] = second compound 1 µM, first compound 0.00949 µM
# [34] = second compound 1 µM, first compound 0.03 µM
# [35] = second compound 1 µM, first compound 0.0949 µM
# [36] = second compound 1 µM, first compound 0.3 µM
# [37] = second compound 1 µM, first compound 0.949 µM
# [38] = second compound 1 µM, first compound 3 µM
# [39] = second compound 3.16 µM, first compound 0.00949 µM
# [40] = second compound 3.16 µM, first compound 0.03 µM
# [41] = second compound 3.16 µM, first compound 0.0949 µM
# [42] = second compound 3.16 µM, first compound 0.3 µM
# [43] = second compound 3.16 µM, first compound 0.949 µM
# [44] = second compound 3.16 µM, first compound 3 µM
# [45] = second compound 10 µM, first compound 0.00949 µM
# [46] = second compound 10 µM, first compound 0.03 µM
# [47] = second compound 10 µM, first compound 0.0949 µM
# [48] = second compound 10 µM, first compound 0.3 µM
# [49] = second compound 10 µM, first compound 0.949 µM
# [50] = second compound 10 µM, first compound 3 µM
# 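Note: spheroids exposed to compounds for 7 days before readout.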
# 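Throughout, for viability, T/C: 100% = DMSO vehicle control wells.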
structure (smiles),measurement,setting,value
COc1cc(Nc2ncc3c(n2)-c2ccc(Cl)cc2C(c2c(F)cccc2OC)=NC3)ccc1C(=O)O + NC1CCC(NC2CC2c2ccccc2)CC1,IC50,second compound 0.1 µM,> 1 µM
same,IC50,second compound 0.316 µM,> 1 µM
same,IC50,second compound 1 µM,> 1 µM
same,IC50,second compound 3.16 µM,> 1 µM
same,IC50,second compound 10 µM,> 1 µM
same,"viability, T/C",[1],104%
same,"viability, T/C",[2],104%
same,"viability, T/C",[3],92.6%
same,"viability, T/C",[4],86.2%
same,"viability, T/C","second compound 0.1 µM, first compound 0.316 µM",90.3%
same,"viability, T/C","second compound 0.1 µM, first compound 1 µM",82.2%
same,"viability, T/C",[5],100%
same,"viability, T/C",[6],96%
same,"viability, T/C",[7],103%
same,"viability, T/C",[8],82.5%
same,"viability, T/C","second compound 0.316 µM, first compound 0.316 µM",89.7%
same,"viability, T/C","second compound 0.316 µM, first compound 1 µM",85%
same,"viability, T/C",[9],104%
same,"viability, T/C",[10],105%
same,"viability, T/C",[11],88.8%
same,"viability, T/C",[12],86.6%
same,"viability, T/C","second compound 1 µM, first compound 0.316 µM",92.5%
same,"viability, T/C","second compound 1 µM, first compound 1 µM",97.2%
same,"viability, T/C",[13],92.6%
same,"viability, T/C",[14],100%
same,"viability, T/C",[15],100%
same,"viability, T/C",[16],79.4%
same,"viability, T/C","second compound 3.16 µM, first compound 0.316 µM",104%
same,"viability, T/C","second compound 3.16 µM, first compound 1 µM",97.2%
same,"viability, T/C",[17],102%
same,"viability, T/C",[18],111%
same,"viability, T/C",[19],105%
same,"viability, T/C",[20],99.2%
same,"viability, T/C","second compound 10 µM, first compound 0.316 µM",102%
same,"viability, T/C","second compound 10 µM, first compound 1 µM",93.8%
Cn1ncnc1C1c2n[nH]c(=O)c3cc(F)cc(c23)NC1c1ccc(F)cc1 (stereo not given) + NC1CCC(NC2CC2c2ccccc2)CC1,IC50,second compound 0.1 µM,> 0.1 µM
same,IC50,second compound 0.316 µM,> 0.1 µM
same,IC50,second compound 1 µM,> 0.1 µM
same,IC50,second compound 3.16 µM,> 0.1 µM
same,IC50,second compound 10 µM,> 0.1 µM
same,"viability, T/C","second compound 0.1 µM, first compound 0.000316 µM",121%
same,"viability, T/C","second compound 0.1 µM, first compound 0.001 µM",99.1%
same,"viability, T/C",[1],100%
same,"viability, T/C",[2],103%
same,"viability, T/C",[3],101%
same,"viability, T/C",[4],86.2%
same,"viability, T/C","second compound 0.316 µM, first compound 0.000316 µM",105%
same,"viability, T/C","second compound 0.316 µM, first compound 0.001 µM",102%
same,"viability, T/C",[5],93.6%
same,"viability, T/C",[6],115%
same,"viability, T/C",[7],92%
same,"viability, T/C",[8],103%
same,"viability, T/C","second compound 1 µM, first compound 0.000316 µM",104%
same,"viability, T/C","second compound 1 µM, first compound 0.001 µM",108%
same,"viability, T/C",[9],90.2%
same,"viability, T/C",[10],81.7%
same,"viability, T/C",[11],90.2%
same,"viability, T/C",[12],84%
same,"viability, T/C","second compound 3.16 µM, first compound 0.000316 µM",101%
same,"viability, T/C","second compound 3.16 µM, first compound 0.001 µM",101%
same,"viability, T/C",[13],101%
same,"viability, T/C",[14],103%
same,"viability, T/C",[15],101%
same,"viability, T/C",[16],94%
same,"viability, T/C","second compound 10 µM, first compound 0.000316 µM",111%
same,"viability, T/C","second compound 10 µM, first compound 0.001 µM",98%
same,"viability, T/C",[17],91.7%
same,"viability, T/C",[18],103%
same,"viability, T/C",[19],90.4%
same,"viability, T/C",[20],97.7%
NS(=O)(=O)OCC1CC(n2ccc3c(NC4CCc5ccccc54)ncnc32)CC1O (stereo not given) + NC1CCC(NC2CC2c2ccccc2)CC1,IC50,second compound 0.1 µM,> 3 µM
same,IC50,second compound 0.316 µM,> 3 µM
same,IC50,second compound 1 µM,> 3 µM
same,IC50,second compound 3.16 µM,> 3 µM
same,IC50,second compound 10 µM,> 3 µM
same,"viability, T/C",[21],98.6%
same,"viability, T/C",[22],103%
same,"viability, T/C",[23],132%
same,"viability, T/C",[24],133%
same,"viability, T/C",[25],135%
same,"viability, T/C",[26],144%
same,"viability, T/C",[27],92.8%
same,"viability, T/C",[28],103%
same,"viability, T/C",[29],121%
same,"viability, T/C",[30],135%
same,"viability, T/C",[31],146%
same,"viability, T/C",[32],147%
same,"viability, T/C",[33],114%
same,"viability, T/C",[34],108%
same,"viability, T/C",[35],113%
same,"viability, T/C",[36],142%
same,"viability, T/C",[37],135%
same,"viability, T/C",[38],121%
same,"viability, T/C",[39],98.5%
same,"viability, T/C",[40],107%
same,"viability, T/C",[41],128%
same,"viability, T/C",[42],141%
same,"viability, T/C",[43],151%
same,"viability, T/C",[44],151%
same,"viability, T/C",[45],90.1%
same,"viability, T/C",[46],105%
same,"viability, T/C",[47],132%
same,"viability, T/C",[48],135%
same,"viability, T/C",[49],129%
same,"viability, T/C",[50],102%
O=C(C=Cc1cccc(S(=O)(=O)Nc2ccccc2)c1)NO + NC1CCC(NC2CC2c2ccccc2)CC1,IC50,second compound 0.1 µM,> 3 µM
same,IC50,second compound 0.316 µM,2.84 µM
same,IC50,second compound 1 µM,2.23 µM
same,IC50,second compound 3.16 µM,> 3 µM
same,IC50,second compound 10 µM,1.91 µM
same,"viability, T/C",[21],103%
same,"viability, T/C",[22],94.4%
same,"viability, T/C",[23],84.1%
same,"viability, T/C",[24],67.9%
same,"viability, T/C",[25],81.7%
same,"viability, T/C",[26],62.1%
same,"viability, T/C",[27],102%
same,"viability, T/C",[28],96.5%
same,"viability, T/C",[29],87.8%
same,"viability, T/C",[30],80.9%
same,"viability, T/C",[31],69.3%
same,"viability, T/C",[32],47.4%
same,"viability, T/C",[33],100%
same,"viability, T/C",[34],107%
same,"viability, T/C",[35],98.5%
same,"viability, T/C",[36],78.7%
same,"viability, T/C",[37],78.5%
same,"viability, T/C",[38],41.2%
same,"viability, T/C",[39],108%
same,"viability, T/C",[40],105%
same,"viability, T/C",[41],95.5%
same,"viability, T/C",[42],78.2%
same,"viability, T/C",[43],69.2%
same,"viability, T/C",[44],51.9%
same,"viability, T/C",[45],109%
same,"viability, T/C",[46],96.2%
same,"viability, T/C",[47],106%
same,"viability, T/C",[48],74.9%
same,"viability, T/C",[49],65.6%
same,"viability, T/C",[50],41.4%
